Literature values, collected in US20180346488A1, “CYTOTOXIC BENZODIAZEPINE DERIVATIVES AND CONJUGATES THEREOF” (priority 2017, published 2018).

Conditions: Phase I clinical evaluation; cited from earlier work

C=C1C[C@H]2C=Nc3cc(OCCCOc4cc5c(cc4OC)C(=O)N4CC(=C)C[C@H]4C=N5)c(OC)cc3C(=O)N2C1 [SJG-136]
DNA damage in circulating lymphocytes: noted at all doses | adverse effects noted: vascular leak syndrome, peripheral edema, liver toxicity and fatigue | maximum tolerated dose: 45 μg/m^2
